Measurements reported in the supplement of paper PMC10307832.

Legend:
Experiment in all cases: relative viability (nuclei count vs DMSO), 5 days (fraction); higher = more cells survive
[1] = compound: COc1ncc(-c2ccc3nccc(-c4ccnnc4)c3c2)cc1NS(=O)(=O)c1ccc(F)cc1F [Omipalisib] + CS(=O)(=O)N1CCN(Cc2cc3nc(-c4cccc5[nH]ncc45)nc(N4CCOCC4)c3s2)CC1 [Pictilisib] (partner 1 µM)
Method in brief: (§1)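 The day after seeding in 1536-well plates, lung cancer cell lines were treated by pin tool with a single drug, or with a fixed anchor-drug dose together with five library-drug doses (not always all listed) in √10 steps. After 5 days, a combined fix-and-stain solution (final 0.05% Triton X-100, 1% formaldehyde, 1 ug/ml Hoechst) was added. Nuclei counted on 4× images gave relative viability as treated counts over vehicle counts, reported as the median of duplicate plates.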

[2] = compound: COc1ncc(-c2ccc3nccc(-c4ccnnc4)c3c2)cc1NS(=O)(=O)c1ccc(F)cc1F [Omipalisib] + CC(=O)c1c(C)c2cnc(Nc3ccc(N4CCNCC4)cn3)nc2n(C2CCCC2)c1=O [Palbociclib] (partner 0.5 µM)
Method in brief: as §1

[3] = compound: COc1ncc(-c2ccc3nccc(-c4ccnnc4)c3c2)cc1NS(=O)(=O)c1ccc(F)cc1F [Omipalisib] + Cc1cc(Nc2cc(N3CCN(C)CC3)nc(Sc3ccc(NC(=O)C4CC4)cc3)n2)n[nH]1 [Tozasertib] (partner 0.1 µM)
Method in brief: as §1

[4] = compound: COc1ncc(-c2ccc3nccc(-c4ccnnc4)c3c2)cc1NS(=O)(=O)c1ccc(F)cc1F [Omipalisib] + Cc1nc(Nc2ncc(C(=O)Nc3c(C)cccc3Cl)s2)cc(N2CCN(CCO)CC2)n1 [Dasatinib] (partner 0.075 µM)
Method in brief: as §1

[5] = compound: COc1ncc(-c2ccc3nccc(-c4ccnnc4)c3c2)cc1NS(=O)(=O)c1ccc(F)cc1F [Omipalisib] + CS(=O)(=O)CCNCc1ccc(-c2ccc3ncnc(Nc4ccc(OCc5cccc(F)c5)c(Cl)c4)c3c2)o1 [Lapatinib] (partner 2 µM)
Method in brief: as §1

[6] = compound: COc1ncc(-c2ccc3nccc(-c4ccnnc4)c3c2)cc1NS(=O)(=O)c1ccc(F)cc1F [Omipalisib]
Method in brief: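 Vehicle-anchored 1536-well plates of lung cancer cell lines, held overnight at 37 °C, were pinned with five library-drug doses (not always all listed) spaced by √10. No medium change followed over the next 5 days, after which the cells were fixed, permeabilised and Hoechst-stained together and imaged at 4×. Nuclei were counted with MetaXpress, and viability is treated-well nuclei over vehicle-well nuclei, taken as a median across plates. Plates passed with control CV below 25% and at least one doubling.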

| Cell Line | relative viability ([1]; first compound 0.0003 µM) | relative viability ([1]; first compound 0.003 µM) | relative viability ([1]; first compound 0.03 µM) | relative viability ([2]; first compound 0.0003 µM) | relative viability ([2]; first compound 0.003 µM) | relative viability ([2]; first compound 0.03 µM) | relative viability ([3]; first compound 0.0003 µM) | relative viability ([3]; first compound 0.003 µM) | relative viability ([3]; first compound 0.03 µM) | relative viability ([4]; first compound 0.0003 µM) | relative viability ([4]; first compound 0.003 µM) | relative viability ([4]; first compound 0.03 µM) | relative viability ([5]; first compound 0.0003 µM) | relative viability ([5]; first compound 0.003 µM) | relative viability ([5]; first compound 0.03 µM) | relative viability ([6]; 0.0003 µM) | relative viability ([6]; 0.003 µM) | relative viability ([6]; 0.03 µM) |
| --- | --- | --- | --- | --- | --- | --- | --- | --- | --- | --- | --- | --- | --- | --- | --- | --- | --- | --- |
| HCC-827 | 0.864 | 0.974 | 0.533 | 0.471 | 0.381 | 0.266 | 0.453 | 0.365 | 0.187 | 0.194 | 0.233 | 0.147 | 0.192 | 0.158 | 0.187 | 1.04 | 1.04 | 0.666 |
| HOP-62 | 0.745 | 0.538 | 0.595 | 0.468 | 0.426 | 0.292 | 0.399 | 0.356 | 0.3 | 0.629 | 0.458 | 0.27 | 0.946 | 0.901 | 0.702 | 1.03 | 1.06 | 0.753 |
| LC-2-ad | 0.517 | 0.582 | 0.238 | 0.488 | 0.458 | 0.299 | 0.349 | 0.401 | 0.289 | 0.503 | 0.47 | 0.168 | 0.933 | 0.784 | 0.745 | 0.942 | 0.831 | 0.556 |
| LCLC-97TM1 | 0.181 | 0.15 | 0.166 | 0.202 | 0.14 | 0.0751 | 0.169 | 0.119 | 0.0744 | 0.883 | 0.74 | 0.472 | 0.976 | 0.323 | 0.223 | 1.03 | 0.586 | 0.203 |
| LCLC-103H | 0.615 | 0.665 | 0.531 | 0.481 | 0.479 | 0.356 | 0.406 | 0.361 | 0.18 | 0.467 | 0.326 | 0.167 | – | – | – | 1.04 | 0.745 | 0.617 |
| LK-2 | 0.446 | 0.306 | 0.445 | 0.421 | 0.203 | 0.225 | 0.17 | 0.166 | 0.183 | 0.231 | 0.151 | 0.169 | 0.698 | 0.502 | 0.306 | 0.767 | 0.435 | 0.345 |
| LOU-NH91 | 0.511 | 0.487 | 0.441 | 0.586 | 0.536 | 0.52 | 0.706 | 0.621 | 0.441 | 0.521 | 0.381 | 0.355 | 0.708 | 0.53 | 0.511 | 0.999 | 0.784 | 0.65 |
| LU99A | 0.303 | 0.242 | 0.265 | 0.396 | 0.24 | 0.183 | 0.289 | 0.233 | 0.215 | 0.482 | 0.331 | 0.267 | 0.908 | 0.71 | 0.346 | 0.936 | 0.847 | 0.395 |
| LXF-289 | 0.772 | 0.684 | 0.671 | 0.62 | 0.574 | 0.416 | 0.21 | 0.0991 | 0.0753 | 0.235 | 0.119 | 0.0562 | 0.894 | 0.956 | 0.785 | 1.04 | 1.08 | 0.943 |
| NCI-H23 | 0.45 | 0.373 | 0.401 | 0.391 | 0.239 | 0.211 | 0.342 | 0.295 | 0.265 | 0.826 | 0.468 | 0.332 | 0.911 | 0.862 | 0.501 | 0.913 | 0.594 | 0.464 |
| NCI-H322M | 0.467 | 0.577 | 0.313 | 0.427 | 0.446 | 0.449 | 0.467 | 0.407 | 0.348 | 0.234 | 0.245 | 0.257 | 0.53 | 0.553 | 0.415 | 0.892 | 0.728 | 0.622 |
| NCI-H358 | 0.285 | 0.272 | 0.278 | 0.148 | 0.139 | 0.131 | 0.126 | 0.108 | 0.0977 | 0.127 | 0.11 | 0.131 | 0.388 | 0.367 | 0.325 | 0.893 | 0.561 | 0.388 |
| NCI-H441 | 0.428 | 0.354 | 0.351 | 0.213 | 0.19 | 0.139 | 0.683 | 0.451 | 0.238 | 0.494 | 0.37 | 0.339 | – | – | – | 0.832 | 0.574 | 0.427 |
| NCI-H460 | 0.419 | 0.254 | 0.316 | 0.147 | 0.0934 | 0.0384 | 0.476 | 0.393 | 0.0957 | 0.385 | 0.288 | 0.0813 | 0.594 | 0.845 | 0.151 | 1 | 0.787 | 0.334 |
| NCI-H520 | 0.243 | 0.212 | 0.251 | 0.203 | 0.152 | 0.145 | 0.319 | 0.308 | 0.235 | 0.159 | 0.162 | 0.131 | 0.778 | 0.581 | 0.22 | 0.787 | 0.588 | 0.252 |
| NCI-H596 | 0.43 | 0.386 | 0.412 | – | – | – | 0.824 | 0.598 | 0.287 | 0.618 | 0.44 | 0.295 | 0.972 | 0.833 | 0.421 | 0.944 | 0.673 | 0.421 |
| NCI-H1792 | 0.281 | 0.278 | 0.129 | 0.636 | 0.424 | 0.27 | – | – | – | 0.566 | 0.521 | 0.21 | 0.864 | 0.88 | 0.301 | 0.91 | 0.495 | 0.213 |
